In PubChem BioAssay (NCI):
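Protocol summary: plate cells (96-well), add compound at 5 concentrations, incubate 48 h, interpolate endpoints linearly. Here, GI50 denotes the concentration required for 50% inhibition of growth. TGI: total growth inhibition.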

Tests used:
Assay in all cases: growth of human tumour cells (NCI), 48 h
M14 melanoma = system: M14 melanoma
SF-295 CNS = system: SF-295 CNS
NCI-H23 lung = system: NCI-H23 lung
PC-3 prostate = system: PC-3 prostate
TK-10 renal = system: TK-10 renal
786-0 renal = system: 786-0 renal
MOLT-4 leukemia = system: MOLT-4 leukemia
NCI-H226 lung = system: NCI-H226 lung
COLO 205 colon = system: COLO 205 colon
OVCAR-5 ovarian = system: OVCAR-5 ovarian
RPMI-8226 leukemia = system: RPMI-8226 leukemia

## O=C(O)c1cccc(S(=O)(=O)NN2C(=O)CSC2c2c(O)ccc3ccccc23)c1 (configuration not stated)
M14 melanoma
  TGI: > 100 µM
SF-295 CNS
  TGI: 94.9 µM
NCI-H23 lung
  TGI: 51.1 µM
PC-3 prostate
  TGI: > 100 µM
TK-10 renal
  TGI: > 100 µM
786-0 renal
  TGI: > 100 µM
MOLT-4 leukemia
  TGI: 46.3 µM
NCI-H226 lung
  TGI: > 100 µM
COLO 205 colon
  TGI: > 100 µM
OVCAR-5 ovarian
  TGI: > 100 µM

## O=c1onc(Nc2ccccc2)n1-c1ccccc1
M14 melanoma
  TGI: > 100 µM
SF-295 CNS
  TGI: > 100 µM
NCI-H23 lung
  TGI: > 100 µM
PC-3 prostate
  TGI: > 100 µM
TK-10 renal
  TGI: > 100 µM
786-0 renal
  TGI: > 100 µM
MOLT-4 leukemia
  TGI: > 100 µM
NCI-H226 lung
  TGI: > 100 µM
COLO 205 colon
  TGI: > 100 µM
OVCAR-5 ovarian
  TGI: > 100 µM

## Nc1c(C(=O)O)nnc2cc(Cl)ccc12
M14 melanoma
  TGI: > 100 µM
SF-295 CNS
  TGI: > 100 µM
NCI-H23 lung
  TGI: > 100 µM
PC-3 prostate
  TGI: > 100 µM
TK-10 renal
  TGI: > 100 µM
786-0 renal
  TGI: > 100 µM
MOLT-4 leukemia
  TGI: > 100 µM
NCI-H226 lung
  TGI: > 100 µM
COLO 205 colon
  TGI: > 100 µM
OVCAR-5 ovarian
  TGI: > 100 µM

## C=C1CC(O)C2C(=C)C(=O)OC2C2C(C)C(=O)CC12 (configuration not stated)
M14 melanoma
  TGI: 25.6 µM
SF-295 CNS
  TGI: 68.9 µM
NCI-H23 lung
  TGI: 31.8 µM
PC-3 prostate
  TGI: > 100 µM
TK-10 renal
  TGI: 18.7 µM
RPMI-8226 leukemia
  TGI: 39.2 µM
MOLT-4 leukemia
  TGI: 39.2 µM
COLO 205 colon
  TGI: 43.5 µM
OVCAR-5 ovarian
  TGI: 30.1 µM

## COc1cc(-c2nc(SC)nc3c2CCc2ccccc2-3)cc(OC)c1OC
M14 melanoma
  TGI: > 100 µM
SF-295 CNS
  TGI: > 100 µM
NCI-H23 lung
  TGI: > 100 µM
PC-3 prostate
  TGI: > 100 µM
RPMI-8226 leukemia
  TGI: 68.8 µM
786-0 renal
  TGI: > 100 µM
MOLT-4 leukemia
  TGI: 96.2 µM
COLO 205 colon
  TGI: > 100 µM
OVCAR-5 ovarian
  TGI: > 100 µM

## C=C(Cl)CN1c2ccccc2C=Cc2ccccc21
M14 melanoma
  TGI: 57.8 µM
SF-295 CNS
  TGI: 35.2 µM
NCI-H23 lung
  TGI: > 100 µM
PC-3 prostate
  TGI: > 100 µM
TK-10 renal
  TGI: > 100 µM
786-0 renal
  TGI: > 100 µM
NCI-H226 lung
  TGI: 70.2 µM
COLO 205 colon
  TGI: 30.4 µM
OVCAR-5 ovarian
  TGI: 50.8 µM

## Cc1ccc2c(c1)Nc1ccccc1P2(=O)O
M14 melanoma
  TGI: > 100 µM
SF-295 CNS
  TGI: > 100 µM
NCI-H23 lung
  TGI: > 100 µM
PC-3 prostate
  TGI: > 100 µM
TK-10 renal
  TGI: > 100 µM
786-0 renal
  TGI: > 100 µM
MOLT-4 leukemia
  TGI: > 100 µM
NCI-H226 lung
  TGI: > 100 µM
COLO 205 colon
  TGI: > 100 µM
OVCAR-5 ovarian
  TGI: > 100 µM

## Clc1ncnc2c1nc(C#Cc1ccccc1)n2C1CCCCO1 (configuration not stated)
M14 melanoma
  TGI: 4.39 µM
SF-295 CNS
  TGI: 16.5 µM
NCI-H23 lung
  TGI: 4.15 µM
PC-3 prostate
  TGI: 11.8 µM
TK-10 renal
  TGI: 5.11 µM
786-0 renal
  TGI: 3.64 µM
MOLT-4 leukemia
  TGI: 8.32 µM
NCI-H226 lung
  TGI: 6.47 µM
COLO 205 colon
  TGI: 2.97 µM
OVCAR-5 ovarian
  TGI: 4.84 µM

## CC1C(c2ccccc2)NC(c2ccccc2)CC1(N)C#N (configuration not stated)
M14 melanoma
  TGI: > 100 µM
SF-295 CNS
  TGI: > 100 µM
NCI-H23 lung
  TGI: > 100 µM
PC-3 prostate
  TGI: > 100 µM
TK-10 renal
  TGI: > 100 µM
786-0 renal
  TGI: > 100 µM
MOLT-4 leukemia
  TGI: > 100 µM
NCI-H226 lung
  TGI: > 100 µM
COLO 205 colon
  TGI: > 100 µM
OVCAR-5 ovarian
  TGI: > 100 µM

## COc1cc2nc(-c3cccs3)nc(N3C(c4cc(OC)c(OC)c(OC)c4)=NNC(=O)c4ccccc43)c2cc1OC
M14 melanoma
  TGI: > 100 µM
SF-295 CNS
  TGI: 42.6 µM
NCI-H23 lung
  TGI: 35.4 µM
PC-3 prostate
  TGI: > 100 µM
TK-10 renal
  TGI: 51.9 µM
786-0 renal
  TGI: > 100 µM
MOLT-4 leukemia
  TGI: > 100 µM
NCI-H226 lung
  TGI: > 100 µM
COLO 205 colon
  TGI: > 100 µM
OVCAR-5 ovarian
  TGI: 54.5 µM

## Cc1ccc(S(=O)(=O)N/N=C\c2c3ccccc3[n+](C)c3ccccc23)cc1
M14 melanoma
  TGI: 97.9 µM
SF-295 CNS
  TGI: 30.3 µM
NCI-H23 lung
  TGI: > 100 µM
TK-10 renal
  TGI: > 100 µM
RPMI-8226 leukemia
  TGI: > 100 µM
786-0 renal
  TGI: > 100 µM
MOLT-4 leukemia
  TGI: 53.3 µM
NCI-H226 lung
  TGI: 60.1 µM
OVCAR-5 ovarian
  TGI: > 100 µM

## CC(C)(C)CC(C)(C)NCC(O)COc1ccc(C(C)(C)c2ccc(OCC(O)CNC(C)(C)CC(C)(C)C)cc2)cc1 (configuration not stated)
M14 melanoma
  TGI: 1.49 µM
SF-295 CNS
  TGI: 3.21 µM
NCI-H23 lung
  TGI: 3.14 µM
PC-3 prostate
  GI50: 1.88 µM
  TGI: 3.38 µM
TK-10 renal
  GI50: 1.75 µM
  TGI: 3.32 µM
786-0 renal
  TGI: 2.77 µM
MOLT-4 leukemia
  TGI: 1.26 µM
NCI-H226 lung
  TGI: 3.51 µM
COLO 205 colon
  TGI: 1.47 µM
OVCAR-5 ovarian
  TGI: 3.32 µM

## Cc1ccc(S(=O)(=O)NC(=O)NC(CC(=O)O)C(=O)O)cc1 (configuration not stated)
M14 melanoma
  TGI: > 100 µM
SF-295 CNS
  TGI: > 100 µM
NCI-H23 lung
  TGI: > 100 µM
PC-3 prostate
  TGI: > 100 µM
TK-10 renal
  TGI: > 100 µM
RPMI-8226 leukemia
  TGI: > 100 µM
786-0 renal
  TGI: > 100 µM
MOLT-4 leukemia
  TGI: > 100 µM
COLO 205 colon
  TGI: > 100 µM
OVCAR-5 ovarian
  TGI: > 100 µM

## OC(CCl)CN1CC[N+]2(CC1)CC[N+]1(CCN(CC(O)CCl)CC1)CC2 (configuration not stated)
M14 melanoma
  TGI: > 50 µM
SF-295 CNS
  TGI: > 50 µM
NCI-H23 lung
  TGI: > 50 µM
TK-10 renal
  TGI: > 50 µM
RPMI-8226 leukemia
  TGI: > 50 µM
786-0 renal
  TGI: > 50 µM
MOLT-4 leukemia
  TGI: > 50 µM
NCI-H226 lung
  TGI: > 50 µM
COLO 205 colon
  TGI: > 50 µM

## O=C(Cn1c(=O)oc2ccc(C(=O)c3cccc(Cl)c3)cc21)c1ccccc1
M14 melanoma
  TGI: > 100 µM
SF-295 CNS
  TGI: > 100 µM
NCI-H23 lung
  TGI: > 100 µM
PC-3 prostate
  TGI: > 100 µM
TK-10 renal
  TGI: > 100 µM
RPMI-8226 leukemia
  TGI: > 100 µM
MOLT-4 leukemia
  TGI: > 100 µM
NCI-H226 lung
  TGI: > 100 µM
COLO 205 colon
  TGI: > 100 µM
OVCAR-5 ovarian
  TGI: > 100 µM

## COc1ccc(/C=C(/c2ccc(OC)cc2)c2c(Cl)cc(Cl)c(/C(=C\c3ccc(OC)cc3)c3ccc(OC)cc3)c2N=Nc2ccccc2)cc1
M14 melanoma
  TGI: > 100 µM
SF-295 CNS
  TGI: > 100 µM
NCI-H23 lung
  TGI: > 100 µM
PC-3 prostate
  TGI: > 100 µM
TK-10 renal
  TGI: > 100 µM
RPMI-8226 leukemia
  TGI: > 100 µM
786-0 renal
  TGI: > 100 µM
MOLT-4 leukemia
  TGI: > 100 µM
COLO 205 colon
  TGI: > 100 µM
OVCAR-5 ovarian
  TGI: > 100 µM
